Data reported in patent publication US20060039879A1, “Use of particular polyols for preventing the hair from breaking, composition comprising them and cosmetic hair treatment process” (L'OREAL, priority 2004, published 2006).

Legend:
[1] = Level of premature breakage of hairs in a tensile test (Zwick tensile testing machine); conditions: 5% by weight compound in water; 30 natural African hairs immersed 3 days at 40° C., no final rinsing; hairs 30 mm, drawn at 10 mm/minute; untreated control R = 0.27
Method: The hair used for the following tests was left in a glove box at 25° C. and 45% relative humidity for about 24 hours.
A composition was prepared by mixing together 5% by weight of the compound of Example 1 and 95% by weight of water relative to the total weight of the composition.
30 natural African hairs were then treated with this composition: the hairs were immersed for 3 days at 40° C., without final rinsing, and their level of premature breakage was then compared with that of a batch of untreated natural control hairs.
Mechanical tests were performed using a Zwick tensile testing machine on the hairs 30 mm long. The hairs were drawn at a speed of 10 mm/minute.
The level of premature breakage of the treated African hair, on the one hand, and of the untreated African hair, on the other hand, was evaluated as follows: R=1—(number of hairs showing breakage under tension in the hardening zone/N) • N being the total number of hairs tested.

[2] = treatment with aqueous solutions of the humectant; breakage for small elongations; cited from earlier work

SMILES | Level of premature breakage R, first test [1] | Level of premature breakage R, second test [1] | Improving the mechanical strength of Negroid hair and reducing its level of premature breakage [2]
O=C(NCCO)NCCO [Example 1, N,N′-bis(2-hydroxyethyl)urea] | R = 0.17 | R = 0.10 | –
OCC(O)CO [glycerol] | – | – | effective
